Laboratory results as given in patent US5610140A, “Bradykinin receptor antagonists with neurokinin receptor blocking activity” (priority 1994, dated 1997).
Entries after “also recorded” stand apart in the source; their conditions may differ. Where two headings read alike, the source gives them in different places. Square brackets hold non-standard residues; d marks the D form. Peptide text beside a SMILES is read from it. * marks the point of attachment. X5 = C[C@@H](O)[C@H](NC(=O)CCCN1C(=O)CC(*)C1=O)C(=O)N[C@H](Cc1cn(C=O)c2ccccc12)C(=O)N[C@@H](Cc1ccccc1)C(=O)N(C)Cc1ccccc1; Hyp = O=C(O)[C@@H]1C[C@@H](O)CN1

How the values were obtained:
[1] = In vitro stability in human plasma; format: in vitro ADME
Experimental: (§1) Plasma samples were prepared by collection of whole blood from healthy male and female human volunteers or guinea pigs. Samples were collected into culture tubes containing sodium heparin, and were then spun at 4° C. at 2000 rpm for ten minutes. Supernatant fractions were removed by aspiration and stored in vials at -20° C. Rat or porcine lung and kidney cortical membranes were prepared using differential centrifugation. Membrane preparations were stored at -20° C. The test compound was diluted to 1 mM concentration in PBS (0.0132 M phosphate, 0.1454 M NaCl, pH 7.2). Ten microliters of this working solution were delivered into a series of Eppendorf tubes, followed by human or guinea pig plasma (90 uL) or PBS as a control blank, and incubated for various time periods. […] Supernatant fractions were removed, filtered through 0.22 uM filters (Millipore) and analyzed by HPLC (C18, 12-80% acetonitrile in water, both containing 0.1% trifluoroacetic acid, monitoring at 214 nm.
(§2) Porcine kidney preparations were diluted 1:10 with PBS; rat kidney preparations were diluted 1:100 with PBS. […] At various time points the reactions were quenched by the addition of 100 uL of ethanol, centrifuged and analyzed by HPLC as described above. The half-life for the disappearance of the HPLC peak was determined using the computer program ENZFIT (Elsevier). […]

[2] = In vitro stability in rat kidney cortical membranes; format: in vitro ADME; details: Rat Kidney membrane preparation diluted 1:100 with PBS
Experimental: as §1, §2

[3] = In vitro stability in porcine kidney cortical membranes; format: in vitro ADME; details: Pig Kidney membrane preparation diluted 1:10 with PBS
Experimental: as §1, §2

[4] = target: T1, Neurokinin 1 (NK1) receptor (Cavia porcellus, UniProt P30547); details: for NK1 pA2: agonist substance P-O-methyl ester
[5] = target: T1, Neurokinin 1 (NK1) receptor; test: cell-based
Water solubility = format: physicochemical; details: in the absence of organic co-solvents
NK1 receptors = NK1 receptors (Homo sapiens, UniProt P25103); details: more potent than FK888; cited from earlier work
[6] = target: T2, Bradykinin 2 (BK2) receptor (Rattus norvegicus, UniProt P25023)
T2 sequence (P25023 1-396): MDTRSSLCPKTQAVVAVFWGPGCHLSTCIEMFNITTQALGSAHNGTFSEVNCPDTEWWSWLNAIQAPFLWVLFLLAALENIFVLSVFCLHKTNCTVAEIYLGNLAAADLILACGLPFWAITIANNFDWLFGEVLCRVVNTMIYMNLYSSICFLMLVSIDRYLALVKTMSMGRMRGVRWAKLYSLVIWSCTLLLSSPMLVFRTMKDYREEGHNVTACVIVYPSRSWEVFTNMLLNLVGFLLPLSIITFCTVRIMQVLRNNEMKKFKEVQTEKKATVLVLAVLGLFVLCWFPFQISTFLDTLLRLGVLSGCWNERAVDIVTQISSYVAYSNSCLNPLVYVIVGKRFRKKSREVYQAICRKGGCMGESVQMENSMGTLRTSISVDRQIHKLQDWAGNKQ

[7] = target: T2, Bradykinin 2 (BK2) receptor; test: cell-based
[8] = as reported in the literature; cited from earlier work
[9] = target: T3, isolated guinea pig lung membrane (Cavia porcellus, UniProt P30547); details: read-out: binding constant; cited from earlier work
T3 construct: host or cells: guinea pig lung membrane

[10] = cited from earlier work
[11] = guinea pig ileum, recovery of agonist response after wash-off

T1 sequence (P30547 whole entry): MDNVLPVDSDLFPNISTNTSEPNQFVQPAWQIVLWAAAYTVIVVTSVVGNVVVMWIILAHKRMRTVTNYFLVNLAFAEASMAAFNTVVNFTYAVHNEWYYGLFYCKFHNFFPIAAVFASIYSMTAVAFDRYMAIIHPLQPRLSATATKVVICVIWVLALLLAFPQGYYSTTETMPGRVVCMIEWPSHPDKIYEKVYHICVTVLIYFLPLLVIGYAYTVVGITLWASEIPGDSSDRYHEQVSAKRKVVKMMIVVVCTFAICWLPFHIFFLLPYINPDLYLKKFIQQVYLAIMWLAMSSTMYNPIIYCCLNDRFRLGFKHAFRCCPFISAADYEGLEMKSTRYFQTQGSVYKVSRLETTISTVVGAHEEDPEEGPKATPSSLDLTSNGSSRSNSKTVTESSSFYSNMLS
T3 sequence (P30547 whole entry): as above
Sequence of NK1 receptors (P25103 whole entry): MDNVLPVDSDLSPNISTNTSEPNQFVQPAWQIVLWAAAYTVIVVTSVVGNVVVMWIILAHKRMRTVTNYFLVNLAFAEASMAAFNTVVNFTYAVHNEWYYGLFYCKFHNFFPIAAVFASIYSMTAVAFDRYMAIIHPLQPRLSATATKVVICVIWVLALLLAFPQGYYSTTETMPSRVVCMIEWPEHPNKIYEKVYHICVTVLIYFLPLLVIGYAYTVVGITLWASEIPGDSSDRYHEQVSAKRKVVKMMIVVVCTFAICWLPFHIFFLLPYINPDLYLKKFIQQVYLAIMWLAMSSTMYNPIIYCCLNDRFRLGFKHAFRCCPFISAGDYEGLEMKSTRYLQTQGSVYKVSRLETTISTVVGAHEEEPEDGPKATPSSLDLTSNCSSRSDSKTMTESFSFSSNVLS

For NC(N)=NCCC[C@H](NC(=O)[C@H](Cc1ccccc1)NC(=O)[C@@H]1CCCN1C(=O)[C@H](CO)NC(=O)[C@H](Cc1ccccc1)NC(=O)CNC(=O)[C@@H]1CCCN1C(=O)[C@@H]1CCCN1C(=O)[C@@H](N)CCCN=C(N)N)C(=O)O [Bradykinin] (H-RPPGFSPFR-OH), the Half-life [1] was 0.45 h, the Half-life [2] was 7.8 min and the Half-life [3] was 0.05 h.
With CC(C)C[C@H](NC(=O)[C@@H](Cc1ccccc1)NC(=O)[C@H](CSC1CC(=O)N(CCCCCCN2C(=O)CC(SC[C@H](NC(=O)[C@H](Cc3ccccc3)NC(=O)CNC(=O)[C@@H]3C[C@@H](O)CN3C(=O)[C@@H]3CCCN3C(=O)[C@H](CCCNC(=N)N)NC(=O)[C@H](N)CCCNC(=N)N)C(=O)N[C@H](Cc3ccccc3)C(=O)N[C@@H](CC(C)C)C(=O)N[C@@H](CCCNC(=N)N)C(=O)O)C2=O)C1=O)NC(=O)[C@H](Cc1ccccc1)NC(=O)CNC(=O)[C@@H]1C[C@@H](O)CN1C(=O)[C@@H]1CCCN1C(=O)[C@H](CCCNC(=N)N)NC(=O)[C@H](N)CCCNC(=N)N)C(=O)N[C@@H](CCCNC(=N)N)C(=O)O (some centres unmarked) [CP-0127] (HELM PEPTIDE1{[dR].R.P.[Hyp].G.F.C.[dF].L.R}|PEPTIDE2{[dR].R.P.[Hyp].G.F.C.[dF].L.R}|CHEM1{[O=C1CC([*:1])C(=O)N1CCCCCCN1C(=O)CC([*:2])C1=O]}$PEPTIDE1,CHEM1,7:R3-1:R1|PEPTIDE2,CHEM1,7:R3-1:R2$$$V2.0) the Half-life [1] was 2.75 h, the Half-life [2] was 39.6 min and the Half-life [3] was greater than 6 h.
In the case of C[C@@H](O)[C@H](NC(=O)CCCCCN1C(=O)CC(SCCO)C1=O)C(=O)N[C@H](Cc1cn(C=O)c2ccccc12)C(=O)N[C@@H](Cc1ccccc1)C(=O)N(C)Cc1ccccc1 (some centres unmarked) [CP-0528], the “NK1 % recovery (wash-off)” value [4] is reported as 80% and the Kb [5] is reported as 316 nM.
For C[C@@H](O)[C@H](NC(=O)CCCN1C(=O)CC(SCCO)C1=O)C(=O)N[C@H](Cc1cn(C=O)c2ccccc12)C(=O)N[C@@H](Cc1ccccc1)C(=O)N(C)Cc1ccccc1 (some centres unmarked) [CP-0529], the “NK1 % recovery (wash-off)” value [4] was 55% and the Kb [5] was 126 nM.
With CN(Cc1ccccc1)C(=O)[C@H](Cc1ccccc1)NC(=O)[C@H](CCCCN)NC(=O)c1c[nH]c2ccccc12 [CP-0533] the water solubility (Water solubility) was “poor solubility in water; also recorded: minimal water solubility”, the “NK1 pA2” value ([4]; guinea pig ileum) was 6.3 and the “NK1 % recovery (wash-off)” value [4, 11] was 73%.
For CN(Cc1ccccc1)C(=O)[C@H](Cc1ccc2ccccc2c1)NC(=O)[C@H](CCCCN)NC(=O)c1c[nH]c2ccccc12 [CP-0535], the water solubility (Water solubility) was “poor water solubility”, the “NK1 pA2” value ([4]; guinea pig ileum) was 7.5 and the “NK1 % recovery (wash-off)” value [4, 11] was 41%.
In the case of COc1ccccc1CN[C@H]1CCCN[C@H]1c1ccccc1 [CP-99994], the “potency relative to FK888 in binding studies” value (NK1 receptors) is given as 10 times.
In the case of CC(C)C[C@H](NC(=O)[C@@H](Cc1ccccc1)NC(=O)[C@H](CSC1CC(=O)N(CCCC(=O)N[C@H](C(=O)N[C@H](Cc2cn(C=O)c3ccccc23)C(=O)N[C@@H](Cc2ccccc2)C(=O)N(C)Cc2ccccc2)[C@@H](C)O)C1=O)NC(=O)[C@H](Cc1ccccc1)NC(=O)CNC(=O)[C@@H]1C[C@@H](O)CN1C(=O)[C@@H]1CCCN1C(=O)[C@H](CCCNC(=N)N)NC(=O)[C@H](N)CCCNC(=N)N)C(=O)N[C@@H](CCCNC(=N)N)C(=O)O (some centres unmarked) [Compound 2] (H-[dR]RP[Hyp]GFC(X5)[dF]LR-OH), the “NK1 % recovery (wash-off)” value [4] is reported as 48%, the “BK2 % Recovery (wash-off)” value [6] is reported as 20% and the Kb [5] is reported as 126 nM. It also gave a Kb [7] of 6.31 nM.
In the case of CN(Cc1ccccc1)C(=O)[C@H](Cc1ccc2ccccc2c1)NC(=O)[C@@H]1C[C@@H](O)CN1C(=O)c1cn(C)c2ccccc12 [FK888], the water solubility [8] is listed as “poor water solubility”.
For CC(=O)N[C@H](C(=O)N[C@H](Cc1c[nH]c2ccccc12)C(=O)N[C@@H](Cc1ccccc1)C(=O)N(C)Cc1ccccc1)[C@@H](C)O [FR113680, Ac-Thr-D-Trp-Phe-N(CH3)Bn, reference compound], the “NK1 % recovery (wash-off)” value [4] is listed as 53%, the Ki [9] is listed as 5.8 nM and the Kb [5] is listed as 100 nM. For the same molecule, the in vivo stability [10] was “moderate in vivo stability”.
